From the supplement of paper PMC11061612

Key:
GAK (Melanoma) = experiment: Bliss excess, mean over the matrix (fraction); higher = more synergy
In short: (§1)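 Bliss excess equals the observed combination effect minus the expected value EA + EB − EA·EB, where EA and EB are the effects of each agent alone. Combination Emax is the second-highest inhibition within the matrix. Inhibition was scaled from CellTiter-Glo 2.0 luminescence, with 0 set by vehicle wells and 1 by blank wells, after 72 hours of two-drug dosing of cells plated in 1536-well plates.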

NB1 (Neuroblastoma) [1] = experiment: as above
In short: as §1

[2] = system: SCC-4 (Oral Cavity Carcinoma); experiment: as above
In short: as §1

[3] = system: SNU-423 (Hepatocellular Carcinoma); experiment: as above
In short: as §1

NCI-H2373 (Mesothelioma) = experiment: as above
In short: as §1

[4] = system: NCI-H1876 (Small Cell Lung Carcinoma); experiment: as above
In short: as §1

[5] = system: KP-4 (Pancreatic Carcinoma); experiment: as above
In short: as §1

[6] = system: P30-OHK (B-Lymphoblastic Leukemia); experiment: as above
In short: as §1

KALS-1 (Glioblastoma) = experiment: as above
In short: as §1

[7] = system: NCI-H1963 (Small Cell Lung Carcinoma); experiment: as above
In short: as §1

[8] = system: MDA-MB-415 (Breast Carcinoma); experiment: as above
In short: as §1

[9] = system: C-33-A (Cervical Carcinoma); experiment: as above
In short: as §1

[10] = system: MM1S (Plasma Cell Myeloma); experiment: as above
In short: as §1

[11] = system: BxPC-3 (Pancreatic Carcinoma); experiment: as above
In short: as §1

[12] = system: NAMALWA (Burkitt's Lymphoma); experiment: as above
In short: as §1

[13] = system: ZR-75-30 (Breast Carcinoma); experiment: as above
In short: as §1

[14] = system: LCLC-103H (Non-Small Cell Lung Carcinoma); experiment: as above
In short: as §1

NB1 (Neuroblastoma) [15] = experiment: combination Emax (second highest fraction inhibited in the dose matrix, 72 h); higher = more inhibition; extreme values may be limits of the assay
In short: as §1

[16] = system: MONO-MAC-6 (Acute Myeloid Leukemia); experiment: as above
In short: as §1

[17] = system: LCLC-103H (Non-Small Cell Lung Carcinoma); experiment: as above
In short: as §1

Compound	Bliss excess (GAK (Melanoma))	Bliss excess (NB1 (Neuroblastoma) [1])	Bliss excess [2]	Bliss excess [3]	Bliss excess (NCI-H2373 (Mesothelioma))	Bliss excess [4]	Bliss excess [5]	Bliss excess [6]	Bliss excess (KALS-1 (Glioblastoma))	Bliss excess [7]	Bliss excess [8]	Bliss excess [9]	Bliss excess [10]	Bliss excess [11]	Bliss excess [12]	Bliss excess [13]	Bliss excess [14]	combination Emax (NB1 (Neuroblastoma) [15])	combination Emax [16]	combination Emax [17]
CCN(CCO)CCCOc1ccc2c(Nc3cc(CC(=O)Nc4cccc(F)c4)[nH]n3)ncnc2c1 [AZD2811] + C[C@@H]1COCCN1C2=NC(=NC(=C2)C3(CC3)[S@](=N)(=O)C)C4=C5C=CNC5=NC=C4 [AZD6738] (first compound max 1 µM, 7x7, partner max 10 µM)	-0.056	-0.0802	-0.0707	-0.0386	-0.0139	-0.0316	-0.0273	-0.0736	-0.038	-0.0777	-0.0438	-0.0531	0.0151	-0.0352	0.0394	-0.0533	-0.119	0.79	0.908	0.5
CCN(CCO)CCCOc1ccc2c(Nc3cc(CC(=O)Nc4cccc(F)c4)[nH]n3)ncnc2c1 [AZD2811] + O=C(c1cc(Cc2n[nH]c(=O)c3ccccc23)ccc1F)N1CCN(C(=O)C2CC2)CC1 [Olaparib] (first compound max 1 µM, 7x7, partner max 10 µM)	-0.0049	-0.0581	-0.0447	-0.0138	0.0244	-0.114	0.0525	-0.04	0.0144	-0.0623	0.0059	-0.0108	0.0541	0.0032	0.0548	-0.0225	-0.0275	0.653	0.783	0.752
CN(CCO)CC[C@H](CSc1ccccc1)Nc1ccc(S(=O)(=O)NC(=O)c2ccc(N3CCC([C@@H](O)c4ccccc4-c4ccc(Cl)cc4)CC3)cc2)cc1S(=O)(=O)C(F)(F)F [AZD4320] + C1CN(CCC1(C(=O)N[C@@H](CCO)C2=CC=C(C=C2)Cl)N)C3=NC=NC4=C3C=CN4 [Capivasertib] (first compound max 1 µM, 7x7, partner max 3 µM)	-0.064	-0.0031	-0.0454	-0.0338	-0.0351	-0.0593	-0.0436	0.0169	-0.0039	0.0172	-0.0284	-0.0302	-0.0076	-0.0395	0.0419	-0.0914	-0.0548	0.689	0.597	0.238
CN(CCO)CC[C@H](CSc1ccccc1)Nc1ccc(S(=O)(=O)NC(=O)c2ccc(N3CCC([C@@H](O)c4ccccc4-c4ccc(Cl)cc4)CC3)cc2)cc1S(=O)(=O)C(F)(F)F [AZD4320] + C=CCn1c(=O)c2cnc(Nc3ccc(N4CCN(C)CC4)cc3)nc2n1-c1cccc(C(C)(C)O)n1 [AZD1775] (first compound max 1 µM, partner max 1 µM)	-0.0536	0.0014	0.0838	-0.0129	-0.0089	0.0833	-0.0187	0.141	0.0252	0.0565	-0.0034	-0.0246	0.0981	0.0575	-0.0219	-0.0083	0.0297	0.931	0.88	0.726
CN(CCO)CC[C@H](CSc1ccccc1)Nc1ccc(S(=O)(=O)NC(=O)c2ccc(N3CCC([C@@H](O)c4ccccc4-c4ccc(Cl)cc4)CC3)cc2)cc1S(=O)(=O)C(F)(F)F [AZD4320] + CCN(CCO)CCCOc1ccc2c(Nc3cc(CC(=O)Nc4cccc(F)c4)[nH]n3)ncnc2c1 [AZD2811] (first compound max 1 µM, 7x7, partner max 1 µM)	-0.0032	0.0994	0.0936	-0.0325	-0.0366	0.0935	-0.021	0.045	0.0804	0.0054	0.0756	-0.0283	0.118	-0.0001	0.0873	-0.0024	-0.0157	0.684	0.959	0.344
CN(CCO)CC[C@H](CSc1ccccc1)Nc1ccc(S(=O)(=O)NC(=O)c2ccc(N3CCC([C@@H](O)c4ccccc4-c4ccc(Cl)cc4)CC3)cc2)cc1S(=O)(=O)C(F)(F)F [AZD4320] + CN(C)CCCOc1ccc(-c2ccc3ncc4c(c3c2)n(C2CCOCC2)c(=O)n4C)cn1 [AZD0156] (first compound max 1 µM, 7x7, partner max 1 µM)	-0.0381	-0.0202	-0.0341	-0.0727	-0.0545	0.0374	-0.0604	0.0275	-0.0076	0.0708	-0.114	-0.0302	0.0753	-0.0239	0.0125	-0.038	-0.0704	0.173	0.422	0.219
CN(CCO)CC[C@H](CSc1ccccc1)Nc1ccc(S(=O)(=O)NC(=O)c2ccc(N3CCC([C@@H](O)c4ccccc4-c4ccc(Cl)cc4)CC3)cc2)cc1S(=O)(=O)C(F)(F)F [AZD4320] + C[C@@H]1COCCN1C2=NC(=NC(=C2)C3(CC3)[S@](=N)(=O)C)C4=C5C=CNC5=NC=C4 [AZD6738] (first compound max 1 µM, 7x7, partner max 10 µM)	0.0029	-0.0023	-0.0961	-0.0359	-0.0303	0.0189	-0.0444	0.0653	-0.0784	0.0129	-0.0749	-0.0158	-0.0008	0.0373	0.0006	-0.0601	-0.0362	0.936	0.943	0.546
CN(CCO)CC[C@H](CSc1ccccc1)Nc1ccc(S(=O)(=O)NC(=O)c2ccc(N3CCC([C@@H](O)c4ccccc4-c4ccc(Cl)cc4)CC3)cc2)cc1S(=O)(=O)C(F)(F)F [AZD4320] + C[C@@H](Nc1cc(F)cc(F)c1)c1cc(C(=O)N(C)C)cc2c(=O)cc(N3CCOCC3)oc12 [AZD8186] (first compound max 1 µM, 7x7, partner max 3 µM)	-0.0727	-0.0033	-0.0437	-0.0628	-0.0561	0.0682	0.0087	0.0647	0.0385	0.0841	0.0439	-0.0542	0.0538	0.0345	0.0041	-0.0251	-0.0139	0.651	0.714	0.507
CN(CCO)CC[C@H](CSc1ccccc1)Nc1ccc(S(=O)(=O)NC(=O)c2ccc(N3CCC([C@@H](O)c4ccccc4-c4ccc(Cl)cc4)CC3)cc2)cc1S(=O)(=O)C(F)(F)F [AZD4320] + Cc1cc2ncnn2cc1Nc1ncc2c(n1)n(C1CCOCC1)c(=O)n2C [AZD7648] (first compound max 1 µM, 7x7, partner max 10 µM)	0.0066	-0.0148	-0.0568	-0.0311	-0.0389	0.0162	-0.0578	0.0216	-0.0096	0.0483	-0.0243	-0.0164	0.0657	-0.024	0.0013	-0.0359	-0.0303	0.191	0.393	0.223
CN(CCO)CC[C@H](CSc1ccccc1)Nc1ccc(S(=O)(=O)NC(=O)c2ccc(N3CCC([C@@H](O)c4ccccc4-c4ccc(Cl)cc4)CC3)cc2)cc1S(=O)(=O)C(F)(F)F [AZD4320] + Cn1cnc2c(F)c(Nc3ccc(Br)cc3Cl)c(C(=O)NOCCO)cc21 [Selumetinib] (first compound max 1 µM, 7x7, partner max 3 µM)	0.0028	0.0308	0.054	-0.0228	0.0263	0.0752	-0.0025	0.0291	0.0924	0.0204	-0.0181	0.0597	0.0799	0.0749	0.0105	-0.06	0.0112	0.448	0.658	0.423
COc1nnc2ccc(N3CCC(c4ccc(OCCN5CCN(C)C(=O)[C@H]5C)cc4)CC3)nn12 [AZD5153] + C=CCn1c(=O)c2cnc(Nc3ccc(N4CCN(C)CC4)cc3)nc2n1-c1cccc(C(C)(C)O)n1 [AZD1775] (first compound max 1 µM, partner max 1 µM)	-0.158	-0.0461	-0.0421	-0.0459	-0.0589	0.0224	-0.0859	0.0298	-0.12	-0.0427	-0.0878	-0.0546	-0.0412	-0.028	-0.0633	-0.042	-0.0128	0.842	0.989	0.549
COc1nnc2ccc(N3CCC(c4ccc(OCCN5CCN(C)C(=O)[C@H]5C)cc4)CC3)nn12 [AZD5153] + CC1(C)CCC(CN2CCN(c3ccc(C(=O)NS(=O)(=O)c4ccc(NCC5CCOCC5)c([N+](=O)[O-])c4)c(Oc4cnc5[nH]ccc5c4)c3)CC2)=C(c2ccc(Cl)cc2)C1 [Venetoclax] (first compound max 1 µM, 7x7, partner max 1 µM)	-0.0172	-0.0863	-0.0765	-0.0223	-0.0769	0.0029	-0.0465	0.102	-0.0418	0.0782	-0.0155	-0.0107	-0.0394	-0.0745	-0.0558	-0.0852	-0.0404	0.232	0.989	0.376
COc1nnc2ccc(N3CCC(c4ccc(OCCN5CCN(C)C(=O)[C@H]5C)cc4)CC3)nn12 [AZD5153] + CCN(CCO)CCCOc1ccc2c(Nc3cc(CC(=O)Nc4cccc(F)c4)[nH]n3)ncnc2c1 [AZD2811] (first compound max 1 µM, 7x7, partner max 1 µM)	-0.0273	-0.0071	-0.109	-0.0417	-0.0642	0.0183	-0.0849	-0.0428	-0.0911	-0.0585	-0.0346	0.0198	0.106	-0.0244	-0.0493	-0.0008	-0.0104	0.556	0.995	0.511
